The structures appear in SMILES notation.

The subject of one assay is MCF-7 cells. As to the kind of experiment: Breast cancer cell line proliferation inhibitory activity (CellTiter-Glo 2.0). The format is cell-based. The note with it: Homo sapiens, MCF7, 120 hours. How it is done: In order to evaluate the breast cancer cell line cell proliferation inhibitory activities of Examples according to the present invention, the following experiment was performed. Breast cancer cells of MCF-7 (Korean Cell Line Bank) were planted in a clear bottom white 96-well plate (Corning) so as to be 3×10^3/150 μl/well, and a culture solution comprising the compound continuously diluted in multiples of 3 at 12 concentrations (0.00001-2 mM) and a DMSO control group was added by 0.5 μl/well and treated so that the final concentration was 0.00005-10 μM, and then cultured in a 37° C. CO2 incubator for 120 hours. After 120 hours, the plate treated with the compound is taken out, and CellTiter-Glo® 2.0 Assay (Promega) solution is treated at 150 μl/well and then they mix well. They mix well at room temperature for 10 minutes or so, and the fluorescence is measured with a microplate reader. The data were expressed as a percentage in proportion to the vehicle standard treated cells, the GI50 (nM) values were calculated using GraphPad Prism 8.3.0 (GraphPad software Inc., San Diego), and the results were shown in Table 3 below.

Another assay concerns the target T1, human FLT3-ITD enzyme (Homo sapiens, UniProt P36888).
T1 sequence (P36888 1-993): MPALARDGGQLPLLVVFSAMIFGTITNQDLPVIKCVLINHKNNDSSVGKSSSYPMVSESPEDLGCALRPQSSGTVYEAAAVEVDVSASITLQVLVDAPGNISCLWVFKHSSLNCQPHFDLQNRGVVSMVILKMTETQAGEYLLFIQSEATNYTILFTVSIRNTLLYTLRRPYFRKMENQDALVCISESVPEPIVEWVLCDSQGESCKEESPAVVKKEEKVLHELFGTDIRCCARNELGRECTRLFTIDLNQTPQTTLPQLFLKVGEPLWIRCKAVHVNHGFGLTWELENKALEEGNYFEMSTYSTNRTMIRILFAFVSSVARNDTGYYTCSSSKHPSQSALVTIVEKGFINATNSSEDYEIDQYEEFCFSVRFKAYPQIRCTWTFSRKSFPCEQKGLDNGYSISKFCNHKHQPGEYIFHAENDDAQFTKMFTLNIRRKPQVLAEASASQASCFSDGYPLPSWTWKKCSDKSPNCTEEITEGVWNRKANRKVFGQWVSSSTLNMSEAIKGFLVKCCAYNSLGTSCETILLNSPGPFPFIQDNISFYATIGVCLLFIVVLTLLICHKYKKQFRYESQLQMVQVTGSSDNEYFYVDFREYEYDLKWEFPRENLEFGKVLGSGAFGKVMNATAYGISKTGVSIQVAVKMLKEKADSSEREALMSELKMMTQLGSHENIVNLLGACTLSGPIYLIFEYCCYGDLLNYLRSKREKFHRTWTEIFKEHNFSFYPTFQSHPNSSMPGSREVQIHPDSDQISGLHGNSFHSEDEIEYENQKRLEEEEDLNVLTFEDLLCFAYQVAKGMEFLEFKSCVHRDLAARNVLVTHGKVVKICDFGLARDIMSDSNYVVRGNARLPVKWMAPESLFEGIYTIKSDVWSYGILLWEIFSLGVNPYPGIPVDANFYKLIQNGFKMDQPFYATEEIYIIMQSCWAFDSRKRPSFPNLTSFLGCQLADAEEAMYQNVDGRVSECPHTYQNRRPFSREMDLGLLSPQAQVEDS
Put plainly: FLT3 enzyme inhibitory ability (ADP-Glo kinase assay). The format is biochemical. The note with it: human FLT3-ITD enzyme 10 ng, ATP 10 μM, 25° C. 1 hour. The method, then: The inhibitory activities of the example compounds according to the present invention to the FLT3-ITD enzyme were evaluated. Specifically, the compound of the present invention was reacted with a purified human FLT3-ITD enzyme (Signalchem). A composition of 40 mM Tris-HCl pH 7.4, 20 mM MgCl2, 0.5 mg/mL BSA and 50 μM DTT was used as a reaction buffer, and reactions of all test matters were performed on the reaction buffer. Upon the test, human FLT3-ITD enzyme (10 ng), purified ATP (10 μM) and a specific substrate solution were reacted at 25° C. for 1 hour, and then the enzyme activity was identified using an in vitro ADP-Glo™ kinase assay (Promega). The enzyme activity reaction solution, the ADP-Glo reaction solution and the enzyme ability detection solution were reacted in a ratio of 2:2:1, and the activity inhibition degree of the enzyme was measured as luminescence. Using the solvent-treated group that was not treated with the compound as a control group, the enzyme activity inhibition degree according to the treatment concentration of each compound was calculated based on the enzyme activity fluorescence degree, and the concentration of each compound that inhibited 50%, IC50 (nM), was determined using Prism Software (version 5.01, GraphPad).
(ADP-Glo turns the ADP formed in a reaction into a luminescent signal.)

Another assay has as its target T2, human GST-HPK1 (1-346) (Homo sapiens, UniProt Q92918).
T2 construct: purified human GST-HPK1 (1-346, Signalchem) enzyme; purchased Signalchem
T2 sequence (Q92918 1-346): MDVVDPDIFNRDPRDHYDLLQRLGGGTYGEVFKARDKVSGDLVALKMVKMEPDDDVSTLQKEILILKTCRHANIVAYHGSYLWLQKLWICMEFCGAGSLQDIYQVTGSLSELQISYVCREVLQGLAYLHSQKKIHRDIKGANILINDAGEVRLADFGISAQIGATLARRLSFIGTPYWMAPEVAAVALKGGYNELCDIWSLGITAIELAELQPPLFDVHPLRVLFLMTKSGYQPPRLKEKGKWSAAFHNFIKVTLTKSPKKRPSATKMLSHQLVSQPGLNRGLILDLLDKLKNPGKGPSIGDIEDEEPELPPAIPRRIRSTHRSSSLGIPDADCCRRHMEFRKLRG
Put plainly: HPK1 enzyme inhibitory ability (ADP-Glo kinase assay). Type of assay: biochemical. The note with it: human GST-HPK1 3 ng, ATP 3 uM, 25° C. 2 hours. The method, then: In order to evaluate the inhibitory activities of the example compounds according to the present invention on the HPK1 (hematopoietic progenitor kinase 1) enzyme, the following experiment was performed. The example compounds were reacted with the purified human GST-HPK1 (1-346, Signalchem) enzyme to evaluate the enzyme inhibitory ability by the following method. As the reaction buffer, a composition of 40 mM Tris-HCl pH 7.4, 20 mM MgCl2, 0.5 mg/mL BSA and 50 uM DTT was used, and reactions of all test matters were performed on the reaction buffer. Upon the test, the human GST-HPK1 (3 ng) enzyme, the purified ATP (3 uM) and a specific substrate solution were reacted at 25° C. for 2 hours, and then the enzyme activity was identified using an in vitro ADP-Glo™ kinase assay (promega). The enzyme activity reaction solution, the ADP-Glo reaction solution and the enzyme ability detection solution were reacted in a ratio of 2:2:1 to measure luminescence. The enzyme activity inhibition degree according to the treatment concentrations of the respective compounds was calculated based on the fluorescence of the enzyme activity of the solvent control group that was not treated with the compound, where the concentration of each compound that inhibited enzyme activity inhibition by 50% was determined as an IC50 (nM) value.

What is called GI50 is the concentration giving 50% growth inhibition. Low readings indicate more potent growth inhibition, high ones less potent growth inhibition. The IC50 is the point on the concentration scale where inhibition reaches its midpoint. A lower IC50 goes with greater potency. Take `CN(C)[C@H]1CCN(c2cccc(Nc3nc(N4OCC[C@@H]4c4ccccc4)c4sccc4n3)c2)C1` [Example 64, N-(3-((S)-3-(dimethylamino)pyrrolidin-1-yl)phenyl)-4-((R)-3-phenylisoxazolidin-2-yl)thieno[3,2-d]pyrimidin-2-amine]: the GI50 in the assay on MCF-7 cells was greater than 500 nM. For the same compound, the concentration for half-maximal inhibition (IC50) against human FLT3-ITD enzyme and on human GST-HPK1 (1-346) was greater than 500 nM in each case.

In turn, `OCCN1CC[C@@H](Oc2cc(Nc3nc(N4OCC[C@H]4c4ccccc4)c4sccc4n3)cc(C3CC3)c2)C1` [Example 65, 2-((R)-3-(3-cyclopropyl-5-((4-((S)-3-phenylisoxazolidin-2-yl)thieno[3,2-d]pyrimidin-2-yl)amino)phenoxy)pyrrolidin-1-yl)ethan-1-ol] returned a concentration for 50% growth inhibition (GI50) in the assay on MCF-7 cells greater than 500 nM. Also, the 50% inhibitory concentration (IC50) against human FLT3-ITD enzyme and at human GST-HPK1 (1-346) was greater than 500 nM each time.

As for `COc1cc(Nc2nc(N3OCC[C@H]3c3ccccc3)c3sccc3n2)cc(C(=O)N2CCN(CCO)CC2)c1` [Example 66, (S)-(4-(2-hydroxyethyl)piperazin-1-yl)(3-methoxy-5-((4-(3-phenylisoxazolidin-2-yl)thieno[3,2-d]pyrimidin-2-yl)amino)phenyl)methanone], the concentration for 50% growth inhibition (GI50) with MCF-7 cells was greater than 500 nM. Further, the half-inhibitory concentration (IC50) at human FLT3-ITD enzyme and against human GST-HPK1 (1-346) was greater than 500 nM throughout.

Regarding `COc1cc(Nc2nc(N3OCC[C@@H]3c3ccccc3)c3sccc3n2)cc(C(=O)N2CCN(CCO)CC2)c1` [Example 67, (R)-(4-(2-hydroxyethyl)piperazin-1-yl)(3-methoxy-5-((4-(3-phenylisoxazolidin-2-yl)thieno[3,2-d]pyrimidin-2-yl)amino)phenyl)methanone], the 50% growth inhibitory concentration (GI50) with MCF-7 cells was greater than 500 nM. For the same compound, the concentration for half-maximal inhibition (IC50) against human FLT3-ITD enzyme and against human GST-HPK1 (1-346) was greater than 500 nM each time.

Turning to `CN1CCN(c2ccc(Nc3nc(N4N=CCC4c4ccccc4)c4cc[nH]c4n3)cc2)CC1` (stereo not drawn) [Example 68, N-(4-(4-methylpiperazin-1-yl)phenyl)-4-(5-phenyl-4,5-dihydro-1H-pyrazol-1-yl)-7H-pyrrolo[2,3-d]pyrimidin-2-amine], the GI50 in the assay with MCF-7 cells was greater than 500 nM. In addition, the IC50 against human FLT3-ITD enzyme was 250 to 500 nM; against human GST-HPK1 (1-346), greater than 500 nM.

Compound `OCCN1CCN(c2ccc(Nc3nc(N4OCC[C@H]4c4ccccc4)c4cc[nH]c4n3)cc2)CC1` [Example 81, (S)-2-(4-(4-((4-(3-phenylisoxazolidin-2-yl)-7H-pyrrolo[2,3-d]pyrimidin-2-yl)amino)phenyl)piperazin-1-yl)ethan-1-ol] had a 50% growth inhibitory concentration (GI50) in the assay on MCF-7 cells greater than 500 nM. For the same compound, the IC50 at human FLT3-ITD enzyme is 250 to 500 nM; on human GST-HPK1 (1-346), no less than 250 nM.

`COc1cc(Nc2nc(N3OCC[C@H]3c3ccccc3)c3cc[nH]c3n2)ccc1N1CCN(CCO)CC1` [Example 82, (S)-2-(4-(2-methoxy-4-((4-(3-phenylisoxazolidin-2-yl)-7H-pyrrolo[2,3-d]pyrimidin-2-yl)amino)phenyl)piperazin-1-yl)ethan-1-ol] had a GI50 in the assay on MCF-7 cells greater than 500 nM. Besides, the IC50 on human FLT3-ITD enzyme and at human GST-HPK1 (1-346) was no less than 250 nM in each case.

Turning to `CCN1CCN(C2CCN(c3ccc(Nc4nc(N5OCC[C@H]5c5ccccc5)c5cc[nH]c5n4)cc3)CC2)CC1` [Example 85, (S)-N-(4-(4-(4-ethylpiperazin-1-yl)piperidin-1-yl)phenyl)-4-(3-phenylisoxazolidin-2-yl)-7H-pyrrolo[2,3-d]pyrimidin-2-amine], the GI50 in the assay on MCF-7 cells was greater than 500 nM. Besides, the IC50 at human FLT3-ITD enzyme was greater than 500 nM; against human GST-HPK1 (1-346), no less than 250 nM.

Regarding `COc1cc(Nc2nc(N3OCC[C@H]3c3ccccc3)c3cc[nH]c3n2)ccc1N1CCC(N2CCN(CCO)CC2)CC1` [Example 90, (S)-2-(4-(1-(2-methoxy-4-((4-(3-phenylisoxazolidin-2-yl)-7H-pyrrolo[2,3-d]pyrimidin-2-yl)amino)phenyl)piperidin-4-yl)piperazin-1-yl)ethan-1-ol], in the assay on MCF-7 cells, the 50% growth inhibitory concentration (GI50) is greater than 500 nM. For the same compound, the figures for the half-inhibitory concentration (IC50) against human FLT3-ITD enzyme and against human GST-HPK1 (1-346) were 250 to 500 nM and no less than 250 nM, respectively.

In the assay with MCF-7 cells, `CN1C[C@@H]2C[C@H]1CN2c1cc(Nc2nc(N3OCC[C@H]3c3ccccc3)c3cc[nH]c3n2)cc(S(C)(=O)=O)c1` [Example 91, N-(3-((1S,4S)-5-methyl-2,5-diazabicyclo[2.2.1]heptan-2-yl)-5-(methylsulfonyl)phenyl)-4-((S)-3-phenylisoxazolidin-2-yl)-7H-pyrrolo[2,3-d]pyrimidin-2-amine] had a concentration for 50% growth inhibition (GI50) greater than 500 nM. Further, the results for the IC50 at human FLT3-ITD enzyme and on human GST-HPK1 (1-346) were greater than 500 nM and no less than 250 nM, respectively.

Take `CN1C[C@H]2C[C@@H]1CN2c1cc(Nc2nc(N3OCC[C@H]3c3ccccc3)c3cc[nH]c3n2)cc(S(C)(=O)=O)c1` [Example 92, N-(3-((1R,4R)-5-methyl-2,5-diazabicyclo[2.2.1]heptan-2-yl)-5-(methylsulfonyl)phenyl)-4-((S)-3-phenylisoxazolidin-2-yl)-7H-pyrrolo[2,3-d]pyrimidin-2-amine]: the GI50 in the assay with MCF-7 cells is greater than 500 nM. Further, the IC50 is greater than 500 nM on human FLT3-ITD enzyme and no less than 250 nM against human GST-HPK1 (1-346).

With `OCCN1CC[C@@H](Oc2cc(Nc3nc(N4OCC[C@H]4c4ccccc4)c4cc[nH]c4n3)cc(C3CC3)c2)C1` [Example 93, 2-((R)-3-(3-cyclopropyl-5-((4-((S)-3-phenylisoxazolidin-2-yl)-7H-pyrrolo[2,3-d]pyrimidin-2-yl)amino)phenoxy)pyrrolidin-1-yl)ethan-1-ol], the concentration for 50% growth inhibition (GI50) in the assay with MCF-7 cells is greater than 500 nM. In addition, the IC50 on human FLT3-ITD enzyme and against human GST-HPK1 (1-346) was greater than 500 nM each time.

Values taken from patent US20220242870A1, “HETEROCYCLE-FUSED PYRIMIDINE DERIVATIVE AND USE THEREOF” (VORONOI Inc., priority 2019, published 2022).
